Earlier results, collected in patent US7022337B2 (Shire Laboratories, Inc., priority 2002, dated 2006).

Details: prolonged treatment, 300 to 400 mg per day

In the case of `CC(C)OC(=O)C(C)(C)Oc1ccc(C(=O)c2ccc(Cl)cc2)cc1` [Fenofibrate, 2-[4-(4-Chlorobenzoyl)phenoxy]-2-methylpropanoic acid 1-methylethyl ester], the “Reduction in the levels of triglycerides” value is listed as 40 to 50% and the “Reduction in total cholesterol” value is listed as 20 to 25%.
